IC50 data for 63 compounds are collected here from patent publication US9637472B2, “Substituted 6,5-fused bicyclic heteroaryl compounds” (Epizyme, Inc., priority 2011, dated 2017).

The target of the first assay is EZH2 (Homo sapiens (Human), UniProt Q15910). Put plainly: PRC2 enzyme assay on peptide substrates. Format: biochemical.
Chain of EZH2 (Q15910 other isoform, or with tags, fused parts or gaps): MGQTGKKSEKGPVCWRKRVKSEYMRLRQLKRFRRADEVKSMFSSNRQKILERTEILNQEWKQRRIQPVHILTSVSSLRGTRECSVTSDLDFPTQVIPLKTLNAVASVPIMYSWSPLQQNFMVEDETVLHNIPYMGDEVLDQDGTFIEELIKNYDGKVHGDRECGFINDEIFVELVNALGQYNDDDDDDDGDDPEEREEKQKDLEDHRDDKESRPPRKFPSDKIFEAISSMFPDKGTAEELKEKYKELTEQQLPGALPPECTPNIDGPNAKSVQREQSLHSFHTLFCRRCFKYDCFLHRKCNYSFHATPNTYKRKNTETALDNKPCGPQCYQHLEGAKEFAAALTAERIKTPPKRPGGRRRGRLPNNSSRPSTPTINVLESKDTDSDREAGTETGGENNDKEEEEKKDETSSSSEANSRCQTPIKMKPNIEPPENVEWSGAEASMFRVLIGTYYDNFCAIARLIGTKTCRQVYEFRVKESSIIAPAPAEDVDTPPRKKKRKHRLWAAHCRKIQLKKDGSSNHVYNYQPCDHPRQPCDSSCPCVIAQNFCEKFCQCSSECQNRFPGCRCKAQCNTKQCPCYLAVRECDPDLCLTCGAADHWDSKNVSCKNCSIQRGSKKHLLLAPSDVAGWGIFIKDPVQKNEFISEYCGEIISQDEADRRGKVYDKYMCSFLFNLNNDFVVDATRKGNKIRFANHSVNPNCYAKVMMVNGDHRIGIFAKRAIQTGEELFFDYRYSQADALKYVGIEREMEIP
Chain of EZH2 (O75530 whole entry partner): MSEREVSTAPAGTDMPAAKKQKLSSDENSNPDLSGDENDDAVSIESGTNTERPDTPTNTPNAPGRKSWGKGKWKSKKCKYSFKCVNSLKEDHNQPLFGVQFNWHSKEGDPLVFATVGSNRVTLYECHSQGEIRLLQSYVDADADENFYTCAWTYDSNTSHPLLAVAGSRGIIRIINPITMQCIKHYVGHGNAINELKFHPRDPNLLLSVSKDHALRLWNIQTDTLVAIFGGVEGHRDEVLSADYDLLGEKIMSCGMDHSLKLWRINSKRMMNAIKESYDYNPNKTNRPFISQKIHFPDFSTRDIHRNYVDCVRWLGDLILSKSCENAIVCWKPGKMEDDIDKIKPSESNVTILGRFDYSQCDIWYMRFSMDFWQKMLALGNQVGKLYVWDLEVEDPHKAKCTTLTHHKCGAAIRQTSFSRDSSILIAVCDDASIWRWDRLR
Chain of EZH2 (Q15022 whole entry partner): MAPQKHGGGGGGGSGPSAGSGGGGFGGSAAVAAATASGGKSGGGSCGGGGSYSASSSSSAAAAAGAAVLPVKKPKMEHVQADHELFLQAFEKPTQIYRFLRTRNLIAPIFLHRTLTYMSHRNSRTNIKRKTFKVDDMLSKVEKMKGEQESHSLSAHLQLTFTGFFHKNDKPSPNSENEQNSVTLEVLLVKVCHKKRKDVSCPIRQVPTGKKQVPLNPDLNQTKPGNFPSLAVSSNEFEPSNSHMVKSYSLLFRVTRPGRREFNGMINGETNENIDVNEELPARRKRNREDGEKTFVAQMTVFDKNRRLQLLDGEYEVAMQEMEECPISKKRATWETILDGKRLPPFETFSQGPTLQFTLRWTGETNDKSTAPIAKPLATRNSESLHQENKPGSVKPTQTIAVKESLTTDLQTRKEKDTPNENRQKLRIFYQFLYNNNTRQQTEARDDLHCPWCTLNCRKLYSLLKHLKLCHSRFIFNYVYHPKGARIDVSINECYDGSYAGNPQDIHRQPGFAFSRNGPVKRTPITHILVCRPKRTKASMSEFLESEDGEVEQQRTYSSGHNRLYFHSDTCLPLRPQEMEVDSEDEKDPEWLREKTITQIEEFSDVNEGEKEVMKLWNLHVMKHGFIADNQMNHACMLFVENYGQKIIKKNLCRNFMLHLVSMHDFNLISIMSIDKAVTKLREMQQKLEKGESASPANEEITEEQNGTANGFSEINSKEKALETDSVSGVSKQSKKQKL
Chain of EZH2 (Q09028 whole entry partner): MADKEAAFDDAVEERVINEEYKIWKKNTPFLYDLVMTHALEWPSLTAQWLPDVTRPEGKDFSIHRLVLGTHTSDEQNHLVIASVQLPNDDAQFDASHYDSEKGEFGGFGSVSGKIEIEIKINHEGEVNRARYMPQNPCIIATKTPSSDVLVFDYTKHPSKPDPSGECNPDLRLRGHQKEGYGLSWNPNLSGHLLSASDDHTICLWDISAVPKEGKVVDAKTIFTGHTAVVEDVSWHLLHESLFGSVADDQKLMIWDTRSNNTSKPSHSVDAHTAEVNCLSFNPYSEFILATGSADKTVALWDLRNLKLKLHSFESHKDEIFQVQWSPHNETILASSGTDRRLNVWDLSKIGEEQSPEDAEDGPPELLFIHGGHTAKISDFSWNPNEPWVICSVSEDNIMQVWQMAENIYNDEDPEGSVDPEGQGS
Conditions: not given
For orientation: IC50 means the point on the concentration scale where inhibition reaches its midpoint. For `Cc1cc(C)c(CNC(=O)c2cc(C3=CCN(C)CC3)nc3c2cnn3C(C)C)c(=O)[nH]1` [Compound B-75], the IC50 lay in the range of 300 to 1000 nM.

Still in this assay, the particulars now being: PRC2 enzyme assays on peptide substrates; 4 nM enzyme, 30 min preincubation at 25° C.; read-out: EZH2 IC50.
For the compound `Cc1cc(C)c(CNC(=O)c2cc(C3=CCN(C4CCN(S(C)(=O)=O)CC4)CC3)nc3c2cnn3C(C)C)c(=O)[nH]1` [Compound B-40], the IC50 lay within 300 to 1000 nM. Still for that read-out and setting: the value for `Cc1cc(C)c(CNC(=O)c2cc(N3CCC(N4CCNCC4)CC3)nc3c2cnn3C(C)C)c(=O)[nH]1` [Compound B-44] was 300 to 1000 nM; that for `Cc1cc(C)c(CNC(=O)c2cc(C3=CCN(C(=O)[C@H](C)N)CC3)nc3c2cnn3C(C)C)c(=O)[nH]1` [Compound B-46] was 300 to 1000 nM; that for `Cc1cc(C)c(CNC(=O)c2cc(C3CC(C)(C)NC(C)(C)C3)nc3c2cnn3C2COC2)c(=O)[nH]1` [Compound B-47] was 300 to 1000 nM. The same measure, in the same setting: the value for `Cc1cc(C)c(CNC(=O)c2cc(N3CCC(C4CCNCC4)CC3)nc3c2cnn3C(C)C)c(=O)[nH]1` [Compound B-48] was 300 to 1000 nM; that for `Cc1cc(C)c(CNC(=O)c2cc(C3=CCN(C(=O)CCN)CC3)nc3c2cnn3C(C)C)c(=O)[nH]1` [Compound B-49] was 300 to 1000 nM; that for `Cc1cc(C)c(CNC(=O)c2cc(C3=CCN(C(=O)CN(C)C)CC3)nc3c2cnn3C(C)C)c(=O)[nH]1` [Compound B-53] was 300 to 1000 nM.

As to `Cc1cc(C)c(CNC(=O)c2cc(C3CCN(C4CCN(CCS(C)(=O)=O)CC4)CC3)nc3c2cnn3C(C)C)c(=O)[nH]1` [Compound B-55], the IC50 was in the range of 300 to 1000 nM.

With `Cc1cc(C)c(CNC(=O)c2cc(C3CCN(C(=O)CN(C)C)CC3)nc3c2cnn3C(C)C)c(=O)[nH]1` [Compound B-57], the IC50 is 300 to 1000 nM. The same measure, in the same setting: in the case of `Cc1cc(C)c(CNC(=O)c2cc(C3=CCNCC3)nc3c2cnn3C(C)C)c(=O)[nH]1` [Compound B-60] it was 300 to 1000 nM. The same measure, in the same setting: in the case of `Cc1cc(C)c(CNC(=O)c2cc(C3CCN(C(=O)CCN)CC3)nc3c2cnn3C(C)C)c(=O)[nH]1` [Compound B-62] it was 300 to 1000 nM; in that of `Cc1cc(C)c(CNC(=O)c2cc(C3=CCN(C(=O)CN)CC3)nc3c2cnn3C(C)C)c(=O)[nH]1` [Compound B-63], 300 to 1000 nM.

In the case of `CC(=O)N1CC=C(c2cc(C(=O)NCc3c(C)cc(C)[nH]c3=O)c3cnn(C(C)C)c3n2)CC1` [Compound B-64], the IC50 was in the range of 300 to 1000 nM.

Consider `Cc1cc(C)c(CNC(=O)c2cc(C3=CCN(C(=O)[C@@H](N)CO)CC3)nc3c2cnn3C(C)C)c(=O)[nH]1` [Compound B-66], for which the IC50 fell in the range of 300 to 1000 nM. For the compound `Cc1cc(C)c(CNC(=O)c2cc(C3=CCN(C(=O)C(O)CN)CC3)nc3c2cnn3C(C)C)c(=O)[nH]1` (stereo not drawn) [Compound B-70], the IC50 was in the range of 300 to 1000 nM. Still for that read-out and setting: in the case of `Cc1cc(C)c(CNC(=O)c2cc(C3CCN(CCC(F)(F)F)CC3)nc3c2cnn3C(C)C)c(=O)[nH]1` [Compound B-71] it was 300 to 1000 nM; in that of `Cc1cc(C)c(CNC(=O)c2cc(C3CCN(C)CC3)nc3c2cnn3C(C)C)c(=O)[nH]1` [Compound B-73], 300 to 1000 nM; in that of `CNCC(=O)N1CCC(c2cc(C(=O)NCc3c(C)cc(C)[nH]c3=O)c3cnn(C(C)C)c3n2)CC1` [Compound B-76], 300 to 1000 nM. On the same count and under the same terms, in the case of `Cc1cc(C)c(CNC(=O)c2cc(C3CCN(C(=O)C4CNC4)CC3)nc3c2cnn3C(C)C)c(=O)[nH]1` [Compound B-77] it was 300 to 1000 nM; in that of `CC(=O)N1CCC(c2cc(C(=O)NCc3c(C)cc(C)[nH]c3=O)c3cnn(C(C)C)c3n2)CC1` [Compound B-78], 300 to 1000 nM; in that of `Cc1cc(C)c(CNC(=O)c2cc(C3CCN(C(=O)CN)CC3)nc3c2cnn3C(C)C)c(=O)[nH]1` [Compound B-79], 300 to 1000 nM.

`Cc1cc(C)c(CNC(=O)c2cc(C3=CCOCC3)nc3c2cnn3C(C)C)c(=O)[nH]1` [Compound B-80]: the IC50 is 300 to 1000 nM. With `Cc1cc(C)c(CNC(=O)c2cc(C3=CCCCC3)nc3c2cnn3C(C)C)c(=O)[nH]1` [Compound B-81], the IC50 lay in the range of 300 to 1000 nM. For `Cc1cc(C)c(CNC(=O)c2cc(C3=CCN(C(=O)CO)CC3)nc3c2cnn3C(C)C)c(=O)[nH]1` [Compound B-82], the IC50 fell in the range of 300 to 1000 nM. On the same count and under the same terms, in the case of `Cc1cc(C)c(CNC(=O)c2cc(C3CCN(CCS(C)(=O)=O)CC3)nc3c2cnn3C(C)C)c(=O)[nH]1` [Compound B-83] it was 300 to 1000 nM; in that of `Cc1cc(C)c(CNC(=O)c2cc(C3=CCN(CCC(F)(F)F)CC3)nc3c2cnn3C(C)C)c(=O)[nH]1` [Compound B-84], 300 to 1000 nM. Still for that read-out and setting: in the case of `Cc1cc(C)c(CNC(=O)c2cc(C3CCN(C(=O)CO)CC3)nc3c2cnn3C(C)C)c(=O)[nH]1` [Compound B-85] it was 300 to 1000 nM; in that of `Cc1cc(C)c(CNC(=O)c2cc(N3CCC(N(C)C)CC3)nc3c2cnn3C(C)C)c(=O)[nH]1` [Compound B-86], 1000 to 3000 nM. Still for that read-out and setting: in the case of `Cc1cc(C)c(CNC(=O)c2cc(N3CCC(N4CCOCC4)CC3)nc3c2cnn3C(C)C)c(=O)[nH]1` [Compound B-87] it was 1000 to 3000 nM; in that of `Cc1cc(C)c(CNC(=O)c2cc(Br)nc3c2cnn3C(C)C)c(=O)[nH]1` [Compound B-88], 1000 to 3000 nM; in that of `Cc1cc(C)c(CNC(=O)c2cc(C3=CCN(CCS(C)(=O)=O)CC3)nc3c2cnn3C(C)C)c(=O)[nH]1` [Compound B-89], 1000 to 3000 nM. Consider `Cc1cc(C)c(CNC(=O)c2cc(N(C)CCCN(C)C)nc3c2cnn3C(C)C)c(=O)[nH]1` [Compound B-91], for which the IC50 fell in the range of 1000 to 3000 nM.

Regarding `Cc1cc(C)c(CNC(=O)c2cc(N3CCNCC3)nc3c2cnn3C(C)C)c(=O)[nH]1` [Compound B-92], the half-inhibitory concentration (IC50) lay in the range of 1000 to 3000 nM. On the same count and under the same terms, in the case of `C=C(C)c1cc(C(=O)NCc2c(C)cc(C)[nH]c2=O)c2cnn(C(C)C)c2n1` [Compound B-93] it was 1000 to 3000 nM; in that of `Cc1cc(C)c(CNC(=O)c2cc(N3CCC(C4CCN(C)CC4)CC3)nc3c2cnn3C(C)C)c(=O)[nH]1` [Compound B-94], 1000 to 3000 nM; in that of `Cc1cc(C)c(CNC(=O)c2cc(N3CCC(=O)CC3)nc3c2cnn3C(C)C)c(=O)[nH]1` [Compound B-95], 1000 to 3000 nM. The same measure, in the same setting: in the case of `Cc1cc(C)c(CNC(=O)c2cc(C3CCN(C(=O)C(O)CN)CC3)nc3c2cnn3C(C)C)c(=O)[nH]1` (stereo not drawn) [Compound B-96] it was 1000 to 3000 nM; in that of `C=Cc1cc(C(=O)NCc2c(C)cc(C)[nH]c2=O)c2cnn(C(C)C)c2n1` [Compound B-97], 1000 to 3000 nM. On the same count and under the same terms, in the case of `Cc1cc(C)c(CNC(=O)c2cc(N3CCOCC3)nc3c2cnn3C(C)C)c(=O)[nH]1` [Compound B-98] it was 1000 to 3000 nM; in that of `Cc1cc(C)c(CNC(=O)c2cc(C3=CCN(S(C)(=O)=O)CC3)nc3c2cnn3C(C)C)c(=O)[nH]1` [Compound B-99], 1000 to 3000 nM. Consider `Cc1cc(C)c(CNC(=O)c2cc(C3CCN(C(=O)[C@@H](N)CO)CC3)nc3c2cnn3C(C)C)c(=O)[nH]1` [Compound B-100], for which the IC50 lay in the range of 1000 to 3000 nM. The same measure, in the same setting: the value for `Cc1cc(C)c(CNC(=O)c2cc(N3CCC(N4CCN(S(C)(=O)=O)CC4)CC3)nc3c2cnn3C(C)C)c(=O)[nH]1` [Compound B-101] was 1000 to 3000 nM; that for `Cc1cc(C)c(CNC(=O)c2cc(N3CCC(N4CCN(CCS(C)(=O)=O)CC4)CC3)nc3c2cnn3C(C)C)c(=O)[nH]1` [Compound B-102] was 1000 to 3000 nM; that for `Cc1cc(C)c(CNC(=O)c2cc(C3=CC(C)(C)NC(C)(C)C3)nc3c2cnn3C2C=CCCC2)c(=O)[nH]1` (stereo not drawn) [Compound B-103] was 1000 to 3000 nM. Still for that read-out and setting: the value for `Cc1cc(C)c(CNC(=O)c2cc(OC(C)C)nc3c2cnn3C(C)C)c(=O)[nH]1` [Compound B-104] was 1000 to 3000 nM; that for `Cc1cc(C)c(CNC(=O)c2cc(C3CCN(C(=O)[C@H](C)N)CC3)nc3c2cnn3C(C)C)c(=O)[nH]1` [Compound B-105] was 1000 to 3000 nM; that for `Cc1cc(C)c(CNC(=O)c2cc(N3CCC(N4CCN(C)CC4)CC3)nc3c2cnn3C(C)C)c(=O)[nH]1` [Compound B-106] was 1000 to 3000 nM. The same measure, in the same setting: in the case of `Cc1cc(C)c(CNC(=O)c2cc(C3=CC(C)(C)NC(C)(C)C3)nc3c2cnn3C2CCNCC2)c(=O)[nH]1` [Compound B-107] it was 1000 to 3000 nM.

For the compound `Cc1cc(C)c(CNC(=O)c2cc(N3CCC(N4CCN(C(=O)OC(C)(C)C)CC4)CC3)nc3c2cnn3C(C)C)c(=O)[nH]1` [Compound B-108], the IC50 lay in the range of 1000 to 3000 nM.

Take `Cc1cc(C)c(CNC(=O)c2cc(N3CCC(N)CC3)nc3c2cnn3C(C)C)c(=O)[nH]1` [Compound B-110]: the IC50 fell in the range of 1000 to 3000 nM. Turning to `CCOc1cc(C(=O)NCc2c(C)cc(C)[nH]c2=O)c2cnn(C(C)C)c2n1` [Compound B-112], the IC50 was in the range of 1000 to 3000 nM. Still for that read-out and setting: the value for `Cc1cc(C)c(CNC(=O)c2cc(CO)nc3c2cnn3C(C)C)c(=O)[nH]1` [Compound B-113] was 1000 to 3000 nM; that for `Cc1cc(C)c(CNC(=O)c2cc(NCCS(C)(=O)=O)nc3c2cnn3C(C)C)c(=O)[nH]1` [Compound B-114] was 1000 to 3000 nM. For `Cc1cc(C)c(CNC(=O)c2cc(N3CCCCC3)nc3c2cnn3C(C)C)c(=O)[nH]1` [Compound B-115], the IC50 was 1000 to 3000 nM.

On to `Cc1cc(C)c(CNC(=O)c2cc(C3=CC(C)(C)NC(C)(C)C3)nc3c2cnn3C2CCN(C)CC2)c(=O)[nH]1` [Compound B-116], for which the IC50 lay within 1000 to 3000 nM. Still for that read-out and setting: the value for `CCc1cc(C(=O)NCc2c(C)cc(C)[nH]c2=O)c2cnn(C(C)C)c2n1` [Compound B-117] was 1000 to 3000 nM. Consider `COc1cc(C(=O)NCc2c(C)cc(C)[nH]c2=O)c2cnn(C(C)C)c2n1` [Compound B-118], for which the IC50 lay in the range of 1000 to 3000 nM.

As for `Cc1cc(C)c(CNC(=O)c2cc(N3CCC(O)C3)nc3c2cnn3C(C)C)c(=O)[nH]1` (stereo not drawn) [Compound B-119], the IC50 lay in the range of 1000 to 3000 nM. On the same count and under the same terms, the value for `C=C(Cn1ncc2c(C(=O)NCc3c(C)cc(C)[nH]c3=O)cc(C3=CC(C)(C)NC(C)(C)C3)nc21)C(=O)OC` [Compound B-120] was 1000 to 3000 nM. Same read-out and setting: in the case of `CC(=O)Nc1cc(C(=O)NCc2c(C)cc(C)[nH]c2=O)c2cnn(C(C)C)c2n1` [Compound B-121] it was 1000 to 3000 nM; in that of `CCc1c(C)[nH]c(=O)c(CNC(=O)c2cc(C3=CC(C)(C)NC(C)(C)C3)nc3c2cnn3C(C)C)c1C` [Compound B-122], 3000 to 10000 nM.

Turning to `Cc1cc(C)c(CNC(=O)c2cc(N3CCCC3)nc3c2cnn3C(C)C)c(=O)[nH]1` [Compound B-123], the IC50 lay in the range of 3000 to 10000 nM.
